Measurements taken from US8158587B2, “Compound having histone deacetylase-inhibiting activity, and pharmaceutical composition comprising the compound as an active ingredient” (Kyushu Institute of Technology, priority 2006, dated 2012).

Legend:
murine HDAC6 = target: T1, murine HDAC6 (Mus musculus, UniProt Q9Z2V5); test: HDAC-inhibiting activity, coumarin-labeled acetylated histone peptide assay; assay type: biochemical; conditions: murine HDAC6 from transfected 293T cells; 37° C., 30 minutes
T1 construct: made in house; host or cells: 293T cells (transient transfection, anti-FLAG immunoprecipitation, FLAG peptide elution)
T1 sequence (Q9Z2V5 1-1149): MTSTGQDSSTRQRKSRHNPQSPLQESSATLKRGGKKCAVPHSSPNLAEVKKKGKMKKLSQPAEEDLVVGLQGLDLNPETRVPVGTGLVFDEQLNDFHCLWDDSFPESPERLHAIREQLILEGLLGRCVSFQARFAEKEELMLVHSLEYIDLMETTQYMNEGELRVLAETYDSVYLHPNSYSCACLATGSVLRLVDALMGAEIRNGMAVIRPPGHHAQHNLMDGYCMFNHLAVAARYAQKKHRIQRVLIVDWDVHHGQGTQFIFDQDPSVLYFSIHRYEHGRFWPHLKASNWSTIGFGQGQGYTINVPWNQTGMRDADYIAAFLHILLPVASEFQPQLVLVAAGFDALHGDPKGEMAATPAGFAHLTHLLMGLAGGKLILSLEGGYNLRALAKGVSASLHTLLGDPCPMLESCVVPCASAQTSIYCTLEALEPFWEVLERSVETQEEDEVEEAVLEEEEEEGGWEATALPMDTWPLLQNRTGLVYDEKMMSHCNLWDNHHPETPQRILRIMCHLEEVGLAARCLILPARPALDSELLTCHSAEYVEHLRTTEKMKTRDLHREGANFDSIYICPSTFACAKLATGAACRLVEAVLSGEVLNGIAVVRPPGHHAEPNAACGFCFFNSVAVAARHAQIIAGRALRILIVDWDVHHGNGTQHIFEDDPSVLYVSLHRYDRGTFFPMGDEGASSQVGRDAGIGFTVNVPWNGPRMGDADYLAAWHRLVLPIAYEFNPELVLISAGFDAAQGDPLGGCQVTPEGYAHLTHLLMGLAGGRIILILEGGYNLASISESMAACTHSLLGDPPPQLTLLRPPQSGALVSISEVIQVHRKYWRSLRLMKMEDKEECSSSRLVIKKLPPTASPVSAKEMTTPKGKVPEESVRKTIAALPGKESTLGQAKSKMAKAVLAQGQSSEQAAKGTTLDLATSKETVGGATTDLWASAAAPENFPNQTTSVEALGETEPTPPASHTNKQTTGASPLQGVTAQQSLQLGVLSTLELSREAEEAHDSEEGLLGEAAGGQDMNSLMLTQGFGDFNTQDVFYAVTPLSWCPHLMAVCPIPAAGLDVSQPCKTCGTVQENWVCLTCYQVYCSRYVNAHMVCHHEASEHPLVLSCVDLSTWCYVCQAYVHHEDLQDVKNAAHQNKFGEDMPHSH

[1] = test system: colon cancer cell line KM-12; test: Human cancer cell line panel, proliferation (sulforhodamine B); assay type: cell-based; conditions: KM-12, 2 days of cultivation; read-out: 50% inhibitory concentration, proliferation
[2] = test system: kidney cancer cell line ACHN; test: as above; assay type: cell-based; conditions: 2 days of cultivation, read-out: 50% inhibitory concentration, proliferation

| IC50 (murine HDAC6) [nM] | IC50 [1] [nM] | IC50 [2] [nM] | Structure (SMILES) |
| --- | --- | --- | --- |
| 1400 |  |  | CC1(C)NC(=O)[C@H](CCCCCSCc2ccncc2)NC(=O)[C@H]2CCCN2C(=O)[C@H](Cc2ccccc2)NC1=O [Ky-26, cyclo(-L-Am7(4-pyridylmethyl)-Aib-L-Phe-D-Pro-)] |
|  | ≤ 100 | ≤ 100 | CC(=O)CSCCCCC[C@@H]1NC(=O)[C@H]2CCCN2C(=O)[C@H](Cc2ccccc2)NC(=O)C(C)(C)NC1=O [Ky-72, cyclo(-L-Am7(acetonyl)-Aib-L-Phe-D-Pro-)] |
